This note sets out measurements from patent US20220056043A1, “NITROGEN-CONTAINING FUSED CYCLIC COMPOUND, PREPARATION METHOD THEREFOR AND USE THEREOF” (SICHUAN KELUN-BIOTECH BIOPHARMACEUTICAL CO., LTD., priority 2019, published 2022).

The target of assay [1] is T1, hTLR7 (Homo sapiens, UniProt Q9NYK1).
T1 construct: host or cells: HEK-hTLR7-NF-κB-Luciferase cells
T1 sequence (Q9NYK1 27-1049): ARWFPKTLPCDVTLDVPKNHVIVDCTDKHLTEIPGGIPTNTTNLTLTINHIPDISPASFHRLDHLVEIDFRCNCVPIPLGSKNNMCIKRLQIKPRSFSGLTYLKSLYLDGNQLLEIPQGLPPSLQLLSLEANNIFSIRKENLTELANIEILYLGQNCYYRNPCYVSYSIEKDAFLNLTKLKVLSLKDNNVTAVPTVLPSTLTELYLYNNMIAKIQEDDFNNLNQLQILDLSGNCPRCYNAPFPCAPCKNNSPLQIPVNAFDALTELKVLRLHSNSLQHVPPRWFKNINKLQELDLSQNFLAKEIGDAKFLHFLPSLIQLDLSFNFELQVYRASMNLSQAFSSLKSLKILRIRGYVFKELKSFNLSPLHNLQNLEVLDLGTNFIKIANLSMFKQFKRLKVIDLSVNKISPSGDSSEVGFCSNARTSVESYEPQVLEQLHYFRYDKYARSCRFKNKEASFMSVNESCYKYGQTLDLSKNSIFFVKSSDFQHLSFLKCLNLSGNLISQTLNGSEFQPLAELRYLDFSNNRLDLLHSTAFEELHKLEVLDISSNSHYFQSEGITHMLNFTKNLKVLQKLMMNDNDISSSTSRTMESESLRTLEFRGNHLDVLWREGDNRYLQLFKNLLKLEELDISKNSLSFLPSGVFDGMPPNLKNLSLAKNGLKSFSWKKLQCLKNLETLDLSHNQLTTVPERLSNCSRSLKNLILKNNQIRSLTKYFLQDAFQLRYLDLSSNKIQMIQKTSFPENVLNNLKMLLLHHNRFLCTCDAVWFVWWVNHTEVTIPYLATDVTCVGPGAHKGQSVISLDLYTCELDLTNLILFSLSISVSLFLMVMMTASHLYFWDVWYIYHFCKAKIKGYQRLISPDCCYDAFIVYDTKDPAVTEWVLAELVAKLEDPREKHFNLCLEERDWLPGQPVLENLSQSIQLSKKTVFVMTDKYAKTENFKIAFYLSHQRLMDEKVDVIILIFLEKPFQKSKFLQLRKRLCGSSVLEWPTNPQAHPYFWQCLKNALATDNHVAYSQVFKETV
In words: Agonistic effect on hTLR7, HEK-hTLR7-NF-κB-Luciferase reporter cells. It is filed as cell-based. To be noted: 16 hours. From the text: Experimental Example 3: Agonistic Effect of the Compound of the Invention on hTLR7
In this test, the luciferase in HEK-hTLR7-NF-κB-reporter cells was detected to test the activating effect of the compound of the invention on TLR7 signaling pathway, so as to evaluate the specificity of the agonistic effect of the compound on NLRP3 pathway.
Reagents: DMEM (High glucose); FBS (fetal bovine serum) (Gibco); Bright-Glo™ Luciferase detection kit (Promega)
Cells: HEK-hTLR7-NF-κB-Luciferase gene cells (human TLR7 NF-κB-luciferase reporter gene cells) (Nanjing Cobioer)
1) The HEK-hTLR7-NF-κB-Luciferase cells in a logarithmic growth phase were trypsinized and resuspended in the medium to a concentration of 2×10^6 cells/mL. 50 μL/well of the cell resuspension was added to a 96-well plate such that the number of cells in each well was […]. An appropriate amount of 10 mM DMSO solution of the compound to be tested was taken and diluted to a concentration of 2× test concentration with the medium. 50 μL/well was added to the cells in the 96-well plate, and the 96-well plate was incubated in an incubator at 37° C. and 5% CO2 for 16 hours. The medium was DMEM (High glucose) containing 10% FBS.
2) After the cell incubation, 100 μL/well of Bright-Glo™ Luciferase detection reagent was added, and the mixture was incubated at room temperature for 5 minutes. Relative luciferase activity unit (RLU) was read using a microplate reader.
3) The EC50 of effect of the tested compound to stimulate hTLR7 was fitted by the GraphPad software log(agonist) vs. response—Variable slope four-parameter method.

Assay [2] concerns the target T2, hNLRP3 inflammasome (Homo sapiens, UniProt Q96P20).
T2 construct: endogenous in cells; host or cells: THP-1 cells, PMA-differentiated
As to the kind of experiment: Agonistic effect on the expression of IL-1β in THP-1 cells after PMA-induced differentiation (HTRF). It is filed as cell-based. To be noted: IL-1β level, PMA-differentiated THP-1 cells, 6 hours. The procedure, abridged:
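THP-1 cells differentiated with 1 μM PMA for 24 h, then replated at 1×10^5 cells/well in RPMI 1640 with 2% FBS. Compounds added for 6 h at 37 °C, 5% CO2. Supernatant IL-1β measured by HTRF; EC50 from four-parameter variable-slope fit.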

T2 sequence (Q96P20 whole entry): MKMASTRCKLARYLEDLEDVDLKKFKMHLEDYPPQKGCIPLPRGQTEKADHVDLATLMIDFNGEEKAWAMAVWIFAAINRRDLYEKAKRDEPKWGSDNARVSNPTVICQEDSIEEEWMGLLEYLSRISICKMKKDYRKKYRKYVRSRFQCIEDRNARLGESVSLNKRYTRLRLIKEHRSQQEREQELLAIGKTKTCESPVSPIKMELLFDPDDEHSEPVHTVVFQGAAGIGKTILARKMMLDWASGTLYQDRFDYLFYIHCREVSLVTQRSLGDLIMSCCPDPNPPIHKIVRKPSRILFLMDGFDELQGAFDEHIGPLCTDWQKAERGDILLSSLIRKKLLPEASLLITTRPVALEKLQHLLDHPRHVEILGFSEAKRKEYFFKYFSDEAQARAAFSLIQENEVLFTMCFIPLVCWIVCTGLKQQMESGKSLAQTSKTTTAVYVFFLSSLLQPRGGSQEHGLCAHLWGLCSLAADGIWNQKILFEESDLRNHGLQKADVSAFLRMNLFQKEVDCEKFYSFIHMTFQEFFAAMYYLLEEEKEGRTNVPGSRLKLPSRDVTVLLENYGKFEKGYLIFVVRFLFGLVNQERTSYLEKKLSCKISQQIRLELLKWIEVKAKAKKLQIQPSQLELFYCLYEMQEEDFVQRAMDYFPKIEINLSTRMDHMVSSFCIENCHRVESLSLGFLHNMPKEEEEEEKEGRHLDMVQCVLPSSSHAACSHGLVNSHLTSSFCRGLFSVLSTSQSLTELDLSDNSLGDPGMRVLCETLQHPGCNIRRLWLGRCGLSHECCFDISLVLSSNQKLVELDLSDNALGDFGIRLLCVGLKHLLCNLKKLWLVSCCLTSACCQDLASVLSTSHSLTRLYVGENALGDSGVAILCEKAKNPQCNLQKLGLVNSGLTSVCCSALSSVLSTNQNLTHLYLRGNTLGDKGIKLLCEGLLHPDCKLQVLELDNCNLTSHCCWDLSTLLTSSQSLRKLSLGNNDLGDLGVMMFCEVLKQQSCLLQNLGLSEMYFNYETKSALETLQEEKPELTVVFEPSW

As to `Nc1cc(NC[C@@H]2CCCO2)c2sc(-c3ccn[nH]3)cc2n1` [Compound 105, (S)-2-(1H-pyrazol-5-yl)-N^7-((tetrahydrofuran-2-yl)methyl)thieno[3,2-b]pyridine-5,7-diamine], the results for the concentration giving a half-maximal response (EC50) in assay [1] and in assay [2] were greater than 100000 nM and 0.03 µM, respectively.

As to `Cn1cc(CNc2cc(N)nc3cc(-c4ccn[nH]4)sc23)cn1` [Compound 106, N^7-(1-methyl-1H-pyrazol-4-yl)methyl-2-(1H-pyrazol-5-yl)thieno[3,2-b]pyridine-5,7-diamine], the concentration giving a half-maximal response (EC50) in assay [1] was greater than 100000 nM; in assay [2], 0.04 µM.

Consider `C[C@@H](CO)Nc1cc(N)nc2cc(-c3ccn[nH]3)sc12` [Compound 108, (S)-2-((5-amino-2-(1H-pyrazol-5-yl)thieno[3,2-b]pyridin-7-yl)amino)propanol], for which the EC50 in assay [1] is greater than 100000 nM; in assay [2], 0.34 µM.

Take `Cn1cc(-c2cc3nc(N)cc(NCCCO)c3s2)cn1` [Compound 109, 3-((5-amino-2-(1-methyl-1H-pyrazol-4-yl)thieno[3,2-b]pyridin-7-yl)amino)-1-propanol]: the results for the EC50 in assay [1] and in assay [2] were greater than 100000 nM and 4.48 µM, respectively.

In the case of `Nc1cc(NC2CCCC2)c2sc(-c3ccn[nH]3)cc2n1` [Compound 110, N^7-cyclopentyl-2-(1H-pyrazol-5-yl)thieno[3,2-b]pyridine-5,7-diamine], the EC50 was greater than 100000 nM in assay [1] and 0.02 µM in assay [2].

Take `COC(C)(C)CNc1cc(N)nc2cc(-c3ccn[nH]3)sc12` [Compound 111, N^7-(2′-methoxy-2′-methylpropyl)-2-(1H-pyrazol-5-yl)thieno[3,2-b]pyridine-5,7-diamine]: the EC50 was greater than 100000 nM in assay [1] and 0.23 µM in assay [2].

With `Nc1cc(NC2COC2)c2sc(-c3ccn[nH]3)cc2n1` [Compound 112, N^7-(oxetan-3-yl)-2-(1H-pyrazol-5-yl)thieno[3,2-b]pyridine-5,7-diamine], the EC50 is greater than 100000 nM in assay [1] and 0.28 µM in assay [2].

With `CCC(CC)Nc1cc(N)nc2cc(-c3ccn[nH]3)sc12` [Compound 113, N^7-(pent-3-yl)-2-(1H-pyrazol-5-yl)thieno[3,2-b]pyridine-5,7-diamine], the EC50 was greater than 100000 nM in assay [1] and 0.03 µM in assay [2].

Turning to `Nc1cc(NC2CCC(O)CC2)c2sc(-c3ccn[nH]3)cc2n1` (centres unmarked) [Compound 114, 4-((5-amino-2-(1H-pyrazol-5-yl)thieno[3,2-b]pyridin-7-yl)amino)-1-cyclohexanol], the EC50 in assay [1] is greater than 100000 nM; in assay [2] it was 0.06 µM.

`CC(C)(CO)CNc1cc(N)nc2cc(-c3ccn[nH]3)sc12` [Compound 115, 3-((5-amino-2-(1H-pyrazol-5-yl)thieno[3,2-b]pyridin-7-yl)amino)-2,2-dimethyl-1-propanol]: the concentration for a half-maximal effect (EC50) in assay [1] was greater than 100000 nM; in assay [2], 0.04 µM.

As for `Nc1cc(NCC(F)F)c2sc(-c3ccn[nH]3)cc2n1` [Compound 116, N^7-(2,2-difluoroethyl)-2-(1H-pyrazol-5-yl)thieno[3,2-b]pyridine-5,7-diamine], the concentration for a half-maximal effect (EC50) in assay [1] is greater than 100000 nM; in assay [2], 0.03 µM.

`C[C@@H]1CN(CCNc2cc(N)nc3cc(-c4ccn[nH]4)sc23)C[C@H](C)O1` [Compound 117, N^7-(2-((2S,6R)-2,6-dimethylmorpholino)ethyl)-2-(1H-pyrazol-5-yl)thieno[3,2-b]pyridine-5,7-diamine]: the half-maximal effective concentration (EC50) in assay [1] is greater than 100000 nM; in assay [2], 0.27 µM.

On to `N#CC1(CNc2cc(N)nc3cc(-c4ccn[nH]4)sc23)CC1` [Compound 119], for which the EC50 is greater than 100000 nM in assay [1] and 0.01 µM in assay [2].

With `Nc1cc(NCC2CCOCC2)c2sc(-c3ccn[nH]3)cc2n1` [Compound 120, 2-(1H-pyrazol-5-yl)-N^7-((tetrahydro-2H-pyran-4-yl)methyl)thieno[3,2-b]pyridine-5,7-diamine], the figures for the EC50 in assay [1] and in assay [2] were greater than 100000 nM and 0.05 µM, respectively.

For the compound `CC1(CNc2cc(N)nc3cc(-c4ccn[nH]4)sc23)COC1` [Compound 121, N^7-((3-methyloxetan-3-yl)methyl)-2-(1H-pyrazol-5-yl)thieno[3,2-b]pyridine-5,7-diamine], the EC50 in assay [1] was greater than 100000 nM; in assay [2], 0.03 µM.

In the case of `CC(CO)(CO)CNc1cc(N)nc2cc(-c3ccn[nH]3)sc12` [Compound 122], the EC50 was greater than 100000 nM in assay [1] and 0.6 µM in assay [2].

In the case of `Cc1c(-c2cc[nH]n2)sc2c(NCCN3CCOCC3)cc(N)nc12` [Compound 153], the EC50 in assay [1] was greater than 100000 nM; in assay [2], 4.29 µM.

For the compound `Cc1c(-c2cc[nH]n2)sc2c(NCC3CC3)cc(N)nc12` [Compound 156], the 50% effective concentration (EC50) in assay [1] was greater than 100000 nM; in assay [2], 5.01 µM.

Consider `Cc1c(-c2ccn[nH]2)sc2c(NC[C@@H]3CCCO3)cc(N)nc12` [Compound 157], for which the EC50 in assay [1] was greater than 100000 nM; in assay [2], 3.47 µM.

As to `Cc1c(-c2cc[nH]n2)sc2c(NCCCO)cc(N)nc12` [Compound 159], the EC50 in assay [1] is greater than 100000 nM; in assay [2], 1.29 µM.

For the compound `Nc1cc(N2CCN(C3CCCC3)CC2)c2sc(-c3ccn[nH]3)cc2n1` [Compound 160], the values for the concentration giving a half-maximal response (EC50) in assay [1] and in assay [2] were greater than 100000 nM and 0.11 µM, respectively.

Consider `CN1CCN(c2cc(N)nc3cc(-c4ccn[nH]4)sc23)CC1` [Compound 161], for which the concentration for a half-maximal effect (EC50) in assay [1] is greater than 100000 nM; in assay [2], 0.18 µM.

On to `CC(C)N1CCN(c2cc(N)nc3cc(-c4ccn[nH]4)sc23)CC1` [Compound 162], for which the EC50 was greater than 100000 nM in assay [1] and 0.01 µM in assay [2].

Take `Nc1cc(N2CCN(C3CC3)CC2)c2sc(-c3ccn[nH]3)cc2n1` [Compound 163]: the 50% effective concentration (EC50) in assay [1] is greater than 100000 nM; in assay [2], 0.27 µM.

Regarding `CS(=O)(=O)N1CCN(c2cc(N)nc3cc(-c4ccn[nH]4)sc23)CC1` [Compound 164], the figures for the concentration for a half-maximal effect (EC50) in assay [1] and in assay [2] were greater than 100000 nM and 0.006 µM, respectively.

Turning to `COC1(C)CCN(c2cc(N)nc3cc(-c4ccn[nH]4)sc23)CC1` [Compound 165], the concentration for a half-maximal effect (EC50) in assay [1] is greater than 100000 nM; in assay [2], 0.03 µM.

Consider `Nc1cc(N2CCCC(O)C2)c2sc(-c3ccn[nH]3)cc2n1` (centres unmarked) [Compound 166], for which the EC50 was greater than 100000 nM in assay [1] and 0.34 µM in assay [2].

For `Nc1cc(N2CCN(C3CCCCC3)CC2)c2sc(-c3ccn[nH]3)cc2n1` [Compound 167], the results for the concentration giving a half-maximal response (EC50) in assay [1] and in assay [2] were greater than 100000 nM and 0.01 µM, respectively.

Turning to `C[C@H]1CN(c2cc(N)nc3cc(-c4ccn[nH]4)sc23)C[C@H](C)O1` [Compound 168], the concentration giving a half-maximal response (EC50) in assay [1] is greater than 100000 nM; in assay [2], 0.01 µM.

Turning to `C[C@@H]1CN(c2cc(N)nc3cc(-c4ccn[nH]4)sc23)C[C@H](C)O1` [Compound 169], the concentration for a half-maximal effect (EC50) is greater than 100000 nM in assay [1] and 0.01 µM in assay [2].

For the compound `Nc1cc(N2CCOCC2)c2sc(-c3ccn[nH]3)cc2n1` [Compound 170], the EC50 in assay [1] was greater than 100000 nM; in assay [2], 0.02 µM.

With `CC1(C)CN(c2cc(N)nc3cc(-c4ccn[nH]4)sc23)CCO1` [Compound 171], the 50% effective concentration (EC50) was greater than 100000 nM in assay [1] and 0.03 µM in assay [2].

For `Nc1cc(N2CCC(O)CC2)c2sc(-c3ccn[nH]3)cc2n1` [Compound 172], the concentration for a half-maximal effect (EC50) is greater than 100000 nM in assay [1] and 0.03 µM in assay [2].

Turning to `CC1(C)CCN(c2cc(N)nc3cc(-c4ccn[nH]4)sc23)CC1` [Compound 173], the EC50 in assay [1] is greater than 100000 nM; in assay [2], 0.1 µM.

By EC50 is commonly meant the concentration giving half of the maximal effect. A higher EC50 goes with lower potency in that assay.
